Reference: patent US8865138B2, “Melanin modification compositions and methods of use” (Allergan, Inc., priority 2011, dated 2014)

Tested on: PGF2 alpha
Test: Inhibition of prostaglandin F2 alpha levels in UVB-exposed keratinocytes (ELISA)
Type: cell-based
Details: UVB-induced human keratinocytes; PGF2 alpha measured by ELISA 24 hours post-treatment; FIG. 1
Method: Human keratinocytes were harvested and exposed to with UVB light to induce PGF2 alpha release. Following exposure to UVB irradiation, the cells were treated with a composition comprising 1% 4-ethoxybenzaldehyde, Indomethacin (positive control) or left untreated (negative control). After 24 hours post-treatment, PGF2 alpha levels were measured by ELISA analysis.

## CCOc1ccc(C=O)cc1 [4-ethoxybenzaldehyde]
  inhibition of PGF2 alpha: dose-dependent inhibition
